Patent US20230390315A1, “COMPOSITIONS AND METHODS FOR TREATING ISCHEMIC CONDITIONS” (The Regents of the University of California, priority 2020, published 2023)

What was measured:
HUVEC = HUVEC scratch assay; assay type: cell-based, human; details: 40 uM ManN in combination with 50 ng/ml VEGF
Description: BCECs (passage 6-10) and HUVEC (passage 6-8) were used in this assay. Cells were grown until about 80% confluency in 6-well plates, washed twice with PBS and then starved in serum-free DMEM (low Glucose, Hyclone) for 5 hrs before making a “scratch” using 1 ml tip. Cell monolayers were briefly washed once with serum-free media, followed by various treatments in media containing 1% FBS. 48 hrs later, the assay was stopped by adding 2 ml 4% paraformaldehyde. 20 min later, fixed cells were stained with 1 ml Crystal Violet (Sigma). Plates were washed gently under the running tap water and air-dried before taking pictures. Images were acquired by ZEISS Discovery V8 SteREO microscopy equipped with PixeLINK Megapixel FireWire camera. Quantification of wound closure was done using AxioVision LE Rel.4.4 software. Six images were taken for each sample and six measurements (in pixel) were made on each image using AxioVision LE Rel.4.4 software.

β-Glucosidase = test: β-glucosidase activity assay; assay type: biochemical, almond; details: up to 2 mM
Description: a-mannosidase activity was measured using substrate p-nitrophenyl α-mannopyranoside (1 mM). Enzyme from Jack Bean ([…]) (final concentration of 0.077 U) was incubated at 37° C. in a final volume of 50 μl of 50 mM potassium phosphate buffer, pH 7.5. α-glucosidase was assayed with substrate p-nitrophenyl α-glucoside (7 mM). Enzyme from Saccharomyces cerevisiae-type 1 (Sigma, G5003) (final concentration of 0.1 U) was incubated at 37° C. in a final volume of 50 μl of PBS, pH 7.5. β-Glucosidase was assayed with substrate 4-nitrophenyl β-D-glucopyranoside (Roche). Enzyme from almond (Sigma, G0395) (final concentration of 0.002 U) was incubated at 37° C. in a final volume of 50 μl of PBS, pH 7.5 containing 1% SDS. The incubation was stopped by addition of an equal volume of acid-based stop solution (R&D systems, 895032). Enzymatic activity was measured at 405 nm. α-glucosidase from Saccharomyces cerevisiae type I ([…]) with p-nitrophenyl α-D-glucopyranoside (Sigma, N1377) as the substrate.

A673 = A673 proliferation assay; assay type: cell-based, human
Description: (§1) Proliferation assays with fibroblasts were done in low-glucose DMEM containing 1% FBS, with or without 10 ng/ml bFGF, or 100 ng/ml human EGF and the assay was ended at day 3. ARPE-19 cells were gently lifted with 0.025% trypsin and plated in RtEGM media (Clonetics) containing 2% FBS, L-glutamine, human bFGF and GA-1000. Once cells were attached to plates, serum-free RtEGM media was used to maintain the cultures. For proliferation assays, 1500 human RPE cells were plated into 96-well plates in low-glucose DMEM containing 1% FBS. A673, U87MG, Calu6 and AML12 cells were grown until confluent and were then harvested and re-suspended in appropriate assay media. For proliferation assays, cells were plated at the density of 1000-2000 cells/well in low-glucose DMEM containing 5% FBS or otherwise stated. Bovine pituitary cells (pituitary folliculostellate cells) were isolated as previously described. For proliferation assays with human epidermal keratinocytes, human DMVECs and human dermal fibroblast cells, 1000 cells/well were plated in low-glucose DMEM containing 1% FBS with or without various growth factors. The assay was ended at day 3 for bovine pituitary cells and at day 4 for all the other cell types. […] Four days later, tumor cell growth was measured by the MTS assay (Promega, Madison, WI), a colorimetric assay that measures metabolic activity of viable cells. […]

bovine pituitary cells = test: Bovine pituitary cell proliferation assay; assay type: cell-based; details: alone or in combination with growth factors
Description: as §1

ARPE-19 RPE cells = test: Human RPE cell proliferation assay; assay type: cell-based
Description: as §1

bFGFR1 or β1 integrin = test: Western blot of protein molecular mass in non-ECs; assay type: cell-based; details: 400 μM and 2 mM
Description: Cells were allowed to reach 80% confluency in 12-well plates. […] At various time points, plates were taken out of the incubator and kept on ice. Cell monolayers were first washed once with ice-cold PBS before lysis with 250 μl of Pierce RIPA buffer (ThermoFisher Scientific, Rockford, IL) or use 50 mM Tris-HCl (pH 7.6), 150 mM NaCl, 10% Glycerol, 1% NP-40 containing protease/Phosphatase inhibitor cocktail (100×) (Cell signaling, #5872). Lysates were collected and mixed with 4×Bolt LDS Sample Buffer (Novex, Carlsbad, CA) in the presence of Halt protease inhibitors and phosphatase inhibitor cocktail (ThermoFisher scientific, #NP0007). The samples were subjected to SDS-PAGE (Bolt 4-12% Bis-Tris Plus, Invitrogen) using Bolt MES SDS running buffer or NuPAGE 3-8% Tris-Acetate gel using Tris-Acetate SDS running buffer (Novex). HUVECs (passage 6-8) were plated in EBM-2 basal medium (Lonza) with 0.2% FBS. […] Equal amounts of protein lysates were analyzed by SDS-PAGE and blotted with the indicated antibodies. Proteins were transferred using Tris-Glycine buffer with 20% Methanol (Proteonomics grade) (Apex BioResearch Products). Membranes were first incubated with 5% milk in TBST, pH 7.6 (TEKnova, Hollister, CA), followed by blotting with primary and secondary antibodies. […]

## N[C@H](C=O)[C@@H](O)[C@H](O)[C@H](O)CO [ManN, 2-Amino-2-deoxy-D-mannose]
HUVEC
  HUVEC wound closure: stimulation of migration and wound closure
β-Glucosidase
  effect on β-glucosidase: No effect
A673
  growth of A673: did not promote growth
Bovine pituitary cells
  proliferation of bovine pituitary cells: no increases in proliferation
ARPE-19 RPE cells; 5 mM level of ManN
  cellular toxicity, sensitivity among cell types: least sensitive
ARPE-19 RPE cells; alone or in combination with growth factors
  proliferation of human RPEs: no increases in proliferation
bFGFR1 or β1 integrin
  molecular mass change of bFGFR1 or β1 integrin in non-ECs: induce molecular mass change
